IC50 data for 15 compounds are collected here from US10662183B2, “Inhibitors of myocardin-related transcription factor and serum response factor (MRTF/SRF)-mediated gene transcription and methods for use of the same” (THE REGENTS OF THE UNIVERSITY OF MICHIGAN, priority 2014, dated 2020).

For the experiment, the system named is SRE.L-firefly luciferase reporter (Rho/MKL1 pathway) in PC-3 prostate cancer cells. Description: SRE.L-luciferase reporter assay. The experiment is classed as cell-based. Particulars: 19 h, PC-3 cells transfected with Gα12Q231L, SRE.L and pRL-TK reporters; compound 19 hrs. Summed up: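 PC-3 cells co-transfected with Gα12Q231L (2 ng), SRE.L-firefly (50 ng) and pRL-TK Renilla (7 ng) reporters, then treated with 0–100 μM compound for 19 h at 37° C. in 0.5% FBS DMEM. Dual-luciferase luminescence expressed as % inhibition vs DMSO; WST-1 viability at 450 nm; n=3 in triplicate.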
In general terms: In a reporter assay the amount or activity of a reporter protein is the signal.
As usually defined, the IC50 is the concentration at which inhibition is half-maximal. In turn, `O=C(Nc1ccc(Cl)cc1)C1CCCN(C(=O)c2cccc(-n3cccn3)c2)C1` (stereo not drawn) [Example E-030, 1-(3-(1H-pyrazol-1-yl)benzoyl)-N-(4-chlorophenyl)piperidine-3-carboxamide] displayed an IC50 of 6.1 µM.

In turn, `COc1ccc(C(=O)N2CCN(C(=O)c3cccc(-c4ccco4)c3)CC2C(=O)Nc2ccc(Cl)cc2)cc1` (stereo not drawn) [Example E-007, N-(4-chlorophenyl)-4-(3-(furan-2-yl)benzoyl)-1-(4-methoxybenzoyl)piperazine-2-carboxamide] had a half-inhibitory concentration (IC50) of 15 µM.

`O=C(Nc1ccc(Cl)cc1)C1CC(O)CN(C(=O)c2cccc(-c3ccco3)c2)C1` (stereo not drawn) [Example E-027, N-(4-chlorophenyl)-1-{[3-(furan-2-yl)phenyl]carbonyl}-5-hydroxypiperidine-3-carboxamide] had a concentration for half-maximal inhibition (IC50) of 12.5 µM.

As to `COc1ccc2[nH]c(C(=O)N3CCCC(C(=O)Nc4ccc(Cl)cc4)C3)cc2c1` (stereo not drawn) [Example E-081, N-(4-chlorophenyl)-1-(5-methoxy-1H-indole-2-carbonyl)piperidine-3-carboxamide], the half-inhibitory concentration (IC50) was found to be 0.26 µM.

`C=C1CC(C(=O)Nc2ccc(Cl)cc2)CN(C(=O)c2cccc(-c3ccco3)c2)C1` (stereo not drawn) [Example E-020, N-(4-chlorophenyl)-1-(3-(furan-2-yl)benzoyl)-5-methylenepiperidine-3-carboxamide] showed an IC50 of 1.9 µM.

Consider `CC(=O)N1CCN(C(=O)c2cccc(-c3ccco3)c2)CC1C(=O)Nc1ccc(Cl)cc1` (stereo not drawn) [Example E-008, 1-acetyl-N-(4-chlorophenyl)-4-(3-(furan-2-yl)benzoyl)piperazine-2-carboxamide], for which the half-inhibitory concentration (IC50) amounted to 50 µM.

The compound `O=C(Nc1ccc(Cl)cc1)C1CN(C(=O)c2cncc(-c3ccncc3)c2)CC(F)(F)C1` (stereo not drawn) [Example E-042, 1-([3,4′-bipyridine]-5-carbonyl)-N-(4-chlorophenyl)-5,5-difluoropiperidine-3-carboxamide] came in with a concentration for half-maximal inhibition (IC50) of 0.91 µM.

For the compound `O=C(Nc1ccc(Cl)cc1)C1CN(C(=O)c2cccc(-c3ccco3)c2)CCN1C(=O)Oc1ccccc1` (stereo not drawn) [Example E-015, phenyl 2((4-chlorophenyl)carbamoyl)-4-(3-(furan-2-yl)benzoyl)piperazine-1-carboxylate], the IC50 is 26 µM.

In the case of `Cn1cncc1-c1cccc(C(=O)N2CC(C(=O)Nc3ccc(Cl)cc3)CC(F)(F)C2)c1` (stereo not drawn) [Example E-047, N-(4-chlorophenyl)-5,5-difluoro-1-(3-(1-methyl-1H-imidazol-5-yl)benzoyl)piperidine-3-carboxamide], the concentration for half-maximal inhibition (IC50) was determined as 0.31 µM.

`O=C(Nc1ccc(Cl)cc1)C1CCCN(C(=O)c2ccc3occc3c2)C1` (stereo not drawn) [Example E-094, 1-(benzofuran-5-carbonyl)-N-(4-chlorophenyl)piperidine-3-carboxamide] had an IC50 of 0.46 µM.

Compound `COCCOC(=O)N1CCN(C(=O)c2cccc(-c3ccco3)c2)CC1C(=O)Nc1ccc(Cl)cc1` (stereo not drawn) [Example E-016, 2-methoxyethyl 2((4-chlorophenyl)carbamoyl)-4-(3-(furan-2-yl)benzoyl)piperazine-1-carboxylate] gave an IC50 of 16 µM.

Consider `O=C(Nc1ccc(Cl)cc1)C1CCCN(C(=O)c2nc3ccccc3[nH]2)C1` (stereo not drawn) [Example E-089, 1-(1H-benzo[d]imidazole-2-carbonyl)-N-(4-chlorophenyl)piperidine-3-carboxamide], for which half-maximal inhibition (IC50) required 0.12 µM.

In turn, `O=C(Nc1ccc(Cl)cc1)C1CCCN(C(=O)c2cccc(-n3ccnc3)c2)C1` (stereo not drawn) [Example E-115, 1-(3-(1H-imidazol-1-yl)benzoyl)-N-(4-chlorophenyl)piperidine-3-carboxamide] displayed an IC50 of 5.2 µM.

Turning to `O=C(Nc1ccc(Cl)cc1)C1CN(C(=O)c2cccc(-c3ccncc3)c2)CC(F)(F)C1` (stereo not drawn) [Example E-068, N-(4-chlorophenyl)-5,5-difluoro-1-(3-(pyridin-4-yl)benzoyl) piperidine-3-carboxamide], the midpoint of inhibition, the IC50, lay at 0.78 µM.

`O=C(Nc1ccc(Cl)cc1)C1CCCN(C(=O)c2cccc(-c3cn[nH]c3)c2)C1` (stereo not drawn) [Example E-031, 1-(3-(1H-pyrazol-4-yl)benzoyl)-N-(4-chlorophenyl)piperidine-3-carboxamide]: half-maximal inhibition (IC50) required 3.4 µM.
